In patent US20050096323A1, “Diketopiperazine derivatives to inhibit thrombin” (NovoScience Pharma Inc., priority 1999, published 2005):
pKi: −log10 of the molar value. Where a name gives a salt, the structure may show the parent alone.

What was measured:
ICR mice [1] = assay: Clotting time (CT) of mice whole blood after administration; type: in vivo
Procedure: Blood samples were collected using the capillary method 0.5 h and 1.5 h after i.v. injections and 1 h and 3 h after i.g. and clotting time of whole blood was measured.

SD rats [2] = assay: RT, TT, PT, APTT and FIB in rat plasma after administration; type: in vivo; design: FIB (Fibrillation) / RT (Clot Retraction Time) / TT (Thrombin Time): unit not given here
Procedure: Blood was taken at 0.5 h and 1.5 h after i.v. injection and at 1 h and 3 h after i.g. and plasma RT,TT,PT,APTT and FIB were determined.

ICR mice [3] = assay: Acute toxicity, oral gavage, determination of the maximal dose; type: in vivo
Excerpt: The dose is based on maximal dissolution rate and maximal administered volume of the drug.

urokinase = biological target: T1, urokinase (Homo sapiens, UniProt P00749); assay: Urokinase inhibition constant (Ki), fluorogenic substrate assay; type: biochemical
T1 construct: purchased Sigma
Procedure: (§1) The activity and selectivity of the present invention can be identified by determination of the inhibition constant (Ki) for serine proteases such thrombin and trypsin and fibrinolytic enzymes such as urokinase, plasmin and tissue plasminogen activator (tPA). All of enzymes are purchased from Sigma. The general assay conditions are as follows. The fluorogenic substrates are dissolved in DMSO and diluted using assay buffer containing 50 mM Tris.HCl (pH 7.8 at 25° C.), 0.1 M NaCl and 0.1% polyethylene glycol 8000 (PEG 8000). […] The assays were conducted using Hitachi F2500 spectrophotometer under ambient temperature and at the excitation and emission wavelengths of 383 nm and 455 nm, respectively. The typical progressive data of the enzymatic assays are shown in FIGS. 1-3, and the determination of inhibition constant (Ki) is shown in FIG. 4.

trypsin = biological target: T2, trypsin (Bos taurus, UniProt P00760); assay: Trypsin inhibition constant (Ki), fluorogenic substrate assay; type: biochemical
T2 sequence (P00760 24-246): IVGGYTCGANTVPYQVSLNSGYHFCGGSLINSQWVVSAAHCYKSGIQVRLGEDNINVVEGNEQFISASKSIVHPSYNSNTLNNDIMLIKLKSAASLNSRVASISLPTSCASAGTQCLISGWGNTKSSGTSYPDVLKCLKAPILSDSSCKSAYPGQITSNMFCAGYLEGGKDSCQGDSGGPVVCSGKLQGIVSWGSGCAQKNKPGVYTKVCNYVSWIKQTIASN
Procedure: as §1

plasmin = biological target: T3, plasmin (Homo sapiens, UniProt P00747); assay: Plasmin inhibition constant (Ki), fluorogenic substrate assay; type: biochemical
T3 construct: purchased Sigma
T3 sequence (P00747 581-810 limits assumed, species assumed): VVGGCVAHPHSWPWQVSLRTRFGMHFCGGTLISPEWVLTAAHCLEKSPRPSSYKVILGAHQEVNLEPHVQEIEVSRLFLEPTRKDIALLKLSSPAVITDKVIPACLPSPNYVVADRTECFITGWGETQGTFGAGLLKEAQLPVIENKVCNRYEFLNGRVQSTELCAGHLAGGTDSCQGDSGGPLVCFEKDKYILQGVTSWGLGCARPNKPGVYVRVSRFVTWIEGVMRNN
T3 sequence (P00747 97-580 partner limits assumed, species assumed): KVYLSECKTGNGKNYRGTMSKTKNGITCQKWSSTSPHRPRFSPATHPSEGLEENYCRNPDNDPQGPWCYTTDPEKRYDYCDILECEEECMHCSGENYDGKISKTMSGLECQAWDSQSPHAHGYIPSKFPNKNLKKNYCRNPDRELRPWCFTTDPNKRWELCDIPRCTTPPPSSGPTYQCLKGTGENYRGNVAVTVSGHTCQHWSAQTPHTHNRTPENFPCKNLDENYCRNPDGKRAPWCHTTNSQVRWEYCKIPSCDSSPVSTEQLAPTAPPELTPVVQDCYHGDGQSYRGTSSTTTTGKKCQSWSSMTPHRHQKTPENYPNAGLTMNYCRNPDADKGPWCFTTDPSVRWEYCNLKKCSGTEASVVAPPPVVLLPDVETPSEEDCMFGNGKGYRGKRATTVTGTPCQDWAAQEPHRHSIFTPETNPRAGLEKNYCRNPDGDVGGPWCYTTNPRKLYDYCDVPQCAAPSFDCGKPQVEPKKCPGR
Procedure: as §1

SD rats [4] = assay: Weight of deep vein thrombosis (inferior vena cava thrombi) in rats; type: in vivo, rat; conditions: for Thrombi (mg) Dry weight / Thrombi (mg) Wet weight: 4 hours
Procedure: The drug was administered immediately after operation and, 4 hours later, the thrombi were collected and weighted.

[5] = i.v. 0.25 mg/kg, first time point (0.5 h)
[6] = i.v. 0.25 mg/kg, second time point (1.5 h)

CC1CNc2c(cccc2S(=O)(=O)N2C(=O)C3CC(C)CCN3C(=O)C2CCCNC(=N)N)C1 [NPI1999, (3S,6R,8R)-Bicyclo[4.4.0]-1,4-diaza-3-(3-guanidinopropyl)-4-N-(1,2,3,4-tetrahydro-3-methyl-8-quinolinesulfonyl)-8-methyl-2,5-decanedione, hydrochoride salt]
CT (clotting time of whole blood) (ICR mice [1]; 0.25 mg/kg i.v. group, before administration): 128.53 ± 27.14 | CT (clotting time of whole blood) (ICR mice [1]; 0.25 mg/kg i.v., 0.5 h): 140.02 ± 26.40 | CT (clotting time of whole blood) (ICR mice [1]; 0.25 mg/kg i.v., 1.5 h): 139.88 ± 30.40 | CT (clotting time of whole blood) (ICR mice [1]; 0.5 mg/kg i.v. group, before administration): 125.53 ± 25.03 | CT (clotting time of whole blood) (ICR mice [1]; 0.5 mg/kg i.v., 0.5 h): 172.88 ± 34.26 | CT (clotting time of whole blood) (ICR mice [1]; 0.5 mg/kg i.v., 1.5 h): 161.76 ± 40.10 | CT (clotting time of whole blood) (ICR mice [1]; 1 mg/kg i.v. group, before administration): 124.06 ± 28.96 | CT (clotting time of whole blood) (ICR mice [1]; 1 mg/kg i.v., 0.5 h): 165.12 ± 30.57 | CT (clotting time of whole blood) (ICR mice [1]; 1 mg/kg i.v., 1.5 h): 163.62 ± 44.26 | CT (clotting time of whole blood) (ICR mice [1]; 75 mg/kg i.g. group, before administration): 126.11 ± 22.83 | CT (clotting time of whole blood) (ICR mice [1]; 75 mg/kg i.g., 1 h): 133.11 ± 29.00 | CT (clotting time of whole blood) (ICR mice [1]; 75 mg/kg i.g., 3.0 h): 119.39 ± 25.88 | CT (clotting time of whole blood) (ICR mice [1]; 150 mg/kg i.g. group, before administration): 125.50 ± 23.67 | CT (clotting time of whole blood) (ICR mice [1]; 150 mg/kg i.g., 1 h): 128.06 ± 30.03 | CT (clotting time of whole blood) (ICR mice [1]; 150 mg/kg i.g., 3.0 h): 119.44 ± 26.01 | clotting time compared to controls (ICR mice [1]; i.g. 75 mg/kg and 150 mg/kg, 1 h and 3 h): No significant difference | clotting time compared to controls (ICR mice [1]; i.v. 0.5 mg/kg and 1 mg/kg, 0.5 h and 1.5 h): significantly prolonged | APTT (Activated Partial Prothromboplastin Time) (SD rats [2]; 0.125 mg/kg i.v., 0.5 h): 28.0 ± 4.0 | FIB (Fibrillation) (SD rats [2]; 0.125 mg/kg i.v., 0.5 h): 4.2 ± 0.9 | PT (Prothrombin Time) (SD rats [2]; 0.125 mg/kg i.v., 0.5 h): 25.3 ± 5.8 | RT (Clot Retraction Time) (SD rats [2]; 0.125 mg/kg i.v., 0.5 h): 83.7 ± 9.7 | TT (Thrombin Time) (SD rats [2]; 0.125 mg/kg i.v., 0.5 h): 53.6 ± 11.1 | APTT (Activated Partial Prothromboplastin Time) (SD rats [2]; 0.125 mg/kg i.v., 1.5 h): 28.1 ± 4.6 | FIB (Fibrillation) (SD rats [2]; 0.125 mg/kg i.v., 1.5 h): 4.5 ± 1.2 | PT (Prothrombin Time) (SD rats [2]; 0.125 mg/kg i.v., 1.5 h): 25.0 ± 7.1 | RT (Clot Retraction Time) (SD rats [2]; 0.125 mg/kg i.v., 1.5 h): 60.4 ± 15.9 | TT (Thrombin Time) (SD rats [2]; 0.125 mg/kg i.v., 1.5 h): 39.2 ± 12.5 | APTT (Activated Partial Prothromboplastin Time) (SD rats [2]; 0.25 mg/kg i.v., 0.5 h): 46.7 ± 15.0 | FIB (Fibrillation) (SD rats [2]; 0.25 mg/kg i.v., 0.5 h): 2.09 ± 0.5 | PT (Prothrombin Time) (SD rats [2]; 0.25 mg/kg i.v., 0.5 h): 43.1 ± 17.8 | RT (Clot Retraction Time) (SD rats [2]; 0.25 mg/kg i.v., 0.5 h): 107.6 ± 33.7 | TT (Thrombin Time) (SD rats [2]; 0.25 mg/kg i.v., 0.5 h): 62.1 ± 15.8 | APTT (Activated Partial Prothromboplastin Time) (SD rats [2]; 0.25 mg/kg i.v., 1.5 h): 34.1 ± 10.3 | FIB (Fibrillation) (SD rats [2]; 0.25 mg/kg i.v., 1.5 h): 2.7 ± 0.8 | PT (Prothrombin Time) (SD rats [2]; 0.25 mg/kg i.v., 1.5 h): 34.6 ± 10.1 | RT (Clot Retraction Time) (SD rats [2]; 0.25 mg/kg i.v., 1.5 h): 78.6 ± 16 | TT (Thrombin Time) (SD rats [2]; 0.25 mg/kg i.v., 1.5 h): 49.6 ± 10.9 | APTT (Activated Partial Prothromboplastin Time) (SD rats [2]; 75 mg/kg i.g., 1 h): 30.2 ± 6.9 | FIB (Fibrillation) (SD rats [2]; 75 mg/kg i.g., 1 h): 4.4 ± 0.7 | PT (Prothrombin Time) (SD rats [2]; 75 mg/kg i.g., 1 h): 26.6 ± 5.5 | RT (Clot Retraction Time) (SD rats [2]; 75 mg/kg i.g., 1 h): 74.8 ± 16.6 | TT (Thrombin Time) (SD rats [2]; 75 mg/kg i.g., 1 h): 53.2 ± 10.0 | APTT (Activated Partial Prothromboplastin Time) (SD rats [2]; 75 mg/kg i.g., 3.0 h): 25.7 ± 4.0 | FIB (Fibrillation) (SD rats [2]; 75 mg/kg i.g., 3.0 h): 4.5 ± 0.6 | PT (Prothrombin Time) (SD rats [2]; 75 mg/kg i.g., 3.0 h): 26.6 ± 5.7 | RT (Clot Retraction Time) (SD rats [2]; 75 mg/kg i.g., 3.0 h): 77 ± 29.9 | TT (Thrombin Time) (SD rats [2]; 75 mg/kg i.g., 3.0 h): 42.5 ± 9.4 | RT, TT, PT, APTT, FIB indexes (SD rats [2]; i.g. 75 mg/kg, 1 h or 3 h): None of the indexes was significantly affected | RT, TT, PT, APTT, FIB indexes (SD rats [2]; i.v. 0.125 mg/kg, first time point): RT alone was increased | RT, TT, PT, APTT, FIB indexes (SD rats [2]; i.v. 0.125 mg/kg, second time point): none of the indexes were affected significantly | FIB (SD rats [2]; [5]): reduced | RT, TT, PT and APTT (SD rats [2]; [5]): significantly increased | APTT and FIB (SD rats [2]; [6]): no significantly affected | RT, TT, PT (SD rats [2]; [6]): Only RT,TT,PT were increased | Maximal dose of oral gavage (ICR mice [3]; ICR mice, i.g.): 2860 mg/kg | maximal dose of i.g. (ICR mice [3]; ICR mice, i.g.): 2.86 g/kg/day | mortality (ICR mice [3]; i.g. 1.43 g/kg twice, up to one week): No mortality was observed | Cycloargatroban [Ki (Enzyme)/Ki (Thrombin)] vs. Argatroban [Ki (Enzyme)/Ki (Thrombin)] (urokinase; enzyme = urokinase): −0.14 fold | pKi (urokinase; substrate N-Cbz-Gly-Gly-Arg-AMC): 3.53 | Cycloargatroban [Ki (Enzyme)/Ki (Thrombin)] vs. Argatroban [Ki (Enzyme)/Ki (Thrombin)] (trypsin; listed as Cycloargatroban): +12 fold | Cycloargatroban [Ki (Enzyme)/Ki (Thrombin)] vs. Argatroban [Ki (Enzyme)/Ki (Thrombin)] (trypsin; listed as cycloargatroban): 12 fold | Cycloargatroban [Ki (Enzyme)/Ki (Thrombin)] vs. Argatroban [Ki (Enzyme)/Ki (Thrombin)] (plasmin; enzyme = plasmin): −0.67 fold | pKi (plasmin; substrate D-Ala-Leu-Lys-AMC): 3.28 | Thrombi (mg) Dry weight (SD rats [4]; 0.125 mg/kg i.v.): 7.62 ± 6.18 mg | Thrombi (mg) Wet weight (SD rats [4]; 0.125 mg/kg i.v.): 19.84 ± 12.17 mg | Thrombi (mg) Dry weight (SD rats [4]; 0.25 mg/kg i.v.): 6.70 ± 4.34 mg | Thrombi (mg) Wet weight (SD rats [4]; 0.25 mg/kg i.v.): 19.63 ± 12.02 mg | Thrombi (mg) Dry weight (SD rats [4]; 0.50 mg/kg i.v.): 5.81 ± 3.25 mg | Thrombi (mg) Wet weight (SD rats [4]; 0.50 mg/kg i.v.): 18.85 ± 8.61 mg | Thrombi (mg) Dry weight (SD rats [4]; 75 mg/kg intraduodenum): 11.66 ± 4.23 mg | Thrombi (mg) Wet weight (SD rats [4]; 75 mg/kg intraduodenum): 32.02 ± 19.34 mg | thrombi weights (SD rats [4]; i.v. groups (0.125, 0.25, 0.5 mg/kg)): thrombi weights were decreased | thrombi weights (SD rats [4]; intra-duodenum 75 mg/kg): no obvious effect
